Positions of bridges follow the written chain, without caps; N, C: chain ends. No end group written: not given here.
Columns and labels:
[1] = system: stomach cancer cell lines NUGC3; experiment: Mouse xenograft experiment (tumor formation); type: in vivo, Balb-c/nude mouse; details: intraperitoneally 10 mg/kg once a day
Description: A mouse xenograft experiment was performed to analyze a tumor formation inhibitory effect of cancer therapeutic peptide fragments. Specifically, 5×10^6 stomach cancer cell lines NUGC3 were transplanted by subcutaneous injection into a flank site of a 6-week-old female Balb-c/nude mouse, and after one week (average tumor size 100 mm^3), Vehicle (0.9% saline), OCP5 (SEQ ID NO: 12), OCP5-VGLL1S84-15C (SEQ ID NO: 29), or OCP5-VGLL1S84-7C (SEQ ID NO: 33) was each administered intraperitoneally at 10 mg/kg once a day. Tumor size was measured with a digital caliper at 2-day intervals from the start of drug administration, and the tumor size (tumor size (mm^3)=long axis x short axis2) was calculated. The experiment was terminated when the average tumor size of the OCP5-administered group was 1,000 mm3, and then the tumor was extracted, and the tumor weight was measured.

[2] = system: MMP9; experiment: MMP9 immunohistochemical staining of extracted xenograft tumor tissue; type: in vivo; details: extracted NUGC3 xenograft tumor, 10 mg/kg once a day
Description: After completion of the in vivo xenograft experiment in Example 6-1, changes in the protein expression level of MMP9 were measured in the extracted tumor tissue using immunohistochemical staining and Western blot methods. The immunohistochemical staining was performed by the following method. The extracted tumor tissue was immobilized with 4% paraformaldehyde and embedded in paraffin, and then the tissue was sectioned at 4 μm thickness and attached to a glass slide. The tissue was hydrated with a xylene-ethanol reaction, and then reacted with an MMP9 antibody (1:100) at 4° C. overnight. The next day, the tissue sections were washed with PBS and reacted with a secondary antibody HRP-conjugated anti-rabbit antibody (1:100) at room temperature for 1 hour, and then the antibody was washed with PBS, and the reacted MMP9 was searched through the reaction by a DAB substrate kit (Vecotr Laboratories, #SK-4100). After DAB washing, nuclear staining was performed with a hematoxylin solution, and the tissue was emulsified through an ethanol-xylene reaction and then mounted. Tissue photographs were obtained using a Nikon TS2 microscope.

[3] = system: MMP9; experiment: MMP9 Western blot of extracted xenograft tumor tissue; type: in vivo; details: extracted NUGC3 xenograft tumor, 10 mg/kg once a day
Description: After completion of the in vivo xenograft experiment in Example 6-1, changes in the protein expression level of MMP9 were measured in the extracted tumor tissue using immunohistochemical staining and Western blot methods. In addition, the amount of MMP9 protein in the tumor tissue was analyzed by Western blot experiment. The protein amount in the sample was quantified using a BCA assay method, and 20 μg of each sample was loaded, electrophoresed on SDS-PAGE, and then transferred to a nitrocellulose membrane. The membrane was blocked in a 5% skim milk solution for 1 hour, and then placed in MMP9 (1:1000, Abcam #ab76003) or ACTB (1:10,000, SantaCruz #sc-47778) antibody solution and reacted overnight at 4° C. The next day, the primary antibody was removed, the membrane was washed with a TBST buffer, and a HRP-conjugated anti-mouse or anti-rabbit secondary antibody was diluted at 1:10,000 in the 5% skim milk solution, and then reacted with the membrane at room temperature for 1 hour. The blot reacted with a SuperSignalTM West Pico Chemiluminescent substrate (ThermoFisher #34580) and analyzed on the ChemiDoc XRS+ System (Bio-Rad Laboratories, #1708265).

[4] = system: stomach cancer cell line NUGC3; experiment: Cell growth inhibition (sulforhodamine B staining); type: cell-based; details: for cancer cell growth inhibitory effect: NUGC3, 10 μM screening of Table 4 peptides; for cancer cell growth inhibitory efficacy: NUGC3, treated for each concentration
Description: (§1) Specifically, in order to confirm cell growth ability, a stomach cancer cell line NUGC3 and a breast cancer cell line SK-BR-3 were each subcultured in a 96-well plate, and the next day, peptide fragments Con, 7, and CC of Table 2 were treated with 100 μM each to the cell lines. After 72 hours, the cells were immobilized with a 10% trichloroacetic acid solution, and then stained the cell with a 0.4% sulforhodamine B solution for 1 hour, washed with acetic acid, and dried. Thereafter, the dried cells were dissolved in a 10 mM Tris solution and absorbance was measured at 510 nm using an ELISA plate reader.
In order to compare the cancer cell growth inhibitory effects of cancer therapeutic peptides according to cell-penetrating peptides, the stomach cancer cell line NUGC3 was treated with 10 μM each of cancer therapeutic peptide fragments in Table 4, and the cancer cell growth inhibitory effects were screened in the same manner as in Example 1.
Specifically, in order to confirm the cancer cell inhibition enhancing effect by enhancing the cell permeability of OCP5 among the novel synthesized CPPs, a cancer therapeutic peptide fragment represented by SEQ ID NO: 6 including the existing TAT and a cancer therapeutic peptide fragment represented by SEQ ID NO: 31 including the novel synthesized OCP5 were used. The stomach cancer cell lines NUGC3 and AGS, the breast cancer cell line SK-BR-3, and the pancreatic cancer cell line Capan-1 were treated with 25 μM SEQ ID NO: 6 and 100 μM SEQ ID NO: 31 for 72 hours, respectively, and the cancer cell growth inhibitory effects were compared in the same manner as in Example 1. […] Through this, it was confirmed that the novel CPP may be applied more effectively than the existing TAT to inhibit the cancer cell growth by the anticancer peptides.
(§2) To analyze the cancer cell growth inhibitory effect according to a length of the anticancer peptide fragment, OCP9-VGLLIS84-7 (SEQ ID NO: 43), OCP9-VGLLIS84-9CC (SEQ ID NO: 46), and OCP9-VGLLIS84-15 (SEQ ID NO: 49) were treated for each concentration to analyze the growth inhibitory effects of stomach cancer cell lines NUGC3 and NCI-N87. When stomach cancer cells were treated with cancer therapeutic peptides, the cancer cell growth inhibitory efficacy was shown in a concentration-dependent manner. In addition, it was confirmed that the growth inhibitory effect on the stomach cancer cell lines increased as the length of the anticancer peptide fragment increased (FIG. 7).
Specifically, the cancer cell growth inhibitory effect according to partial or entire cyclization of the anticancer peptide fragment was analyzed. The stomach cancer cell line NUGC3 was treated with a CPP fragment OCP9 (SEQ ID NO: 16), a partially cyclized sequence […] (SEQ ID NO: 33), or a sequence OCP9-VGLLIS84-7CC (SEQ ID NO: 40) including an entirely cyclized anticancer peptide at different concentrations of 1, 2.5, 5, 10, and 20 μM, respectively, and the cancer cell growth inhibitory effects were compared in the same manner as in Example 1.

[5] = system: stomach cancer cell lines NUGC3; experiment: Wound healing assay (cancer cell migration); type: cell-based; details: 10 μM
Description: In order to analyze the possibility of metastasis inhibitory efficacy of stomach cancer cells by anticancer therapeutic peptides, a wound healing assay was performed to evaluate a migration inhibitory effect of stomach cancer cells. Specifically, 5×10^4 stomach cancer cell lines NUGC3 were subcultured in a 24-well plate, and then the next day, scratches were made at the center of the cells, and 10 μM OCP5-VGLL1S84-7C (SEQ ID NO: 33) was mixed into the cell culture medium and administered. Real-time cell images were acquired through Cytation5 (Biotek), and the degree of cancer cell migration was analyzed by calculating the average area (wound width, B) of the scratch area and the degree (% Confluence, C) to which cells were filled.

[6] = system: lung cancer cell line A549; experiment: Cell growth inhibition (sulforhodamine B staining); type: cell-based; details: A549, 10 μM
Description: as §1
(§3) It was investigated whether the cancer therapeutic peptide synthesized in this study could be used to treat various cancers other than stomach cancer. For this purpose, the cancer therapeutic peptides OCP and OCP5-VGLLIS84-7C were treated in stomach cancer cell lines […] and AGS, lung cancer cell lines H460 and A549, pancreatic cancer cell lines AsPC-1 and MIAPaca-1, and breast cancer cell lines MCF7 and MDA-MB-231 at concentrations of 10 μM. Thereafter, as a result of analysis in the same manner as in Example 1, the growth inhibitory efficacy of OCP5-VGLLIS84-7C cancer cells was confirmed compared to the control OCP5 (FIG. 14).

[7] = system: pancreatic cancer cell line MIAPaca-1; experiment: Cell growth inhibition (sulforhodamine B staining); type: cell-based; details: MIAPaca-1, 10 μM
Description: as §1, §3

[8] = system: pancreatic cancer cell line AsPC-1; experiment: Cell growth inhibition (sulforhodamine B staining); type: cell-based; details: AsPC-1, 10 μM
Description: as §1, §3

[9] = system: breast cancer cell line MCF7; experiment: Cell growth inhibition (sulforhodamine B staining); type: cell-based; details: MCF7, 10 μM
Description: as §1, §3

[10] = system: breast cancer cell line MDA-MB-231; experiment: Cell growth inhibition (sulforhodamine B staining); type: cell-based; details: MDA-MB-231, 10 μM
Description: as §1, §3

[11] = system: lung cancer cell line H460; experiment: Cell growth inhibition (sulforhodamine B staining); type: cell-based; details: H460, 10 μM
Description: as §1, §3

[12] = system: stomach cancer cell line NUGC2; experiment: Cell growth inhibition (sulforhodamine B staining); type: cell-based; details: NUGC2, 10 μM
Description: as §1, §3

[13] = system: stomach cancer cell line AGS; experiment: Cell growth inhibition (sulforhodamine B staining); type: cell-based; details: 10 μM
Description: as §1
(§4) Specifically, in order to confirm the cancer cell inhibition enhancing effect by enhancing the cell permeability of OCP5 among the novel synthesized CPPs, a cancer therapeutic peptide fragment represented by SEQ ID NO: 6 including the existing TAT and a cancer therapeutic peptide fragment represented by SEQ ID NO: 31 including the novel synthesized OCP5 were used. The stomach cancer cell lines NUGC3 and AGS, the breast cancer cell line SK-BR-3, and the pancreatic cancer cell line Capan-1 were treated with 25 μM SEQ ID NO: 6 and 100 μM SEQ ID NO: 31 for 72 hours, respectively, and the cancer cell growth inhibitory effects were compared in the same manner as in Example 1. […]

[14] = system: cell line NUGC3; experiment: Cell permeability of FITC-conjugated peptides by FACS; type: cell-based; details: NUGC3, 1.5 or 2.5 μM FITC-conjugated peptide, 3 hours; compared to TAT
Description: To quantitatively measure the cell permeability of the novel synthesized cell-penetrating peptides, 1.5 or 2.5 μM FITC-conjugated peptides were administered to the cell line NUGC3 or the normal cell line WI38, and after 3 hours, the amounts of FITC present in the cells were measured by FACS.

[15] = system: stomach cancer cell line NCI-N87; experiment: Cell growth inhibition (sulforhodamine B staining); type: cell-based; details: NCI-N87, treated for each concentration
Description: as §1, §2

[16] = system: breast cancer cell line SK-BR-3; experiment: Cell growth inhibition (sulforhodamine B staining); type: cell-based; details: SK-BR-3, 100 μM, 72 hours; compared with linear anticancer peptide (SEQ ID NO: 5)
Description: as §1, §4

Substance: SIIFRIFLHLQK-CPNQWRYSSPWTKPQPC-RRR (SIIFRIFLHLQKCPNQWRYSSPWTKPQPCRRR; disulfide 13-29) [OCP5-VGLL1S84-15C]
- tumor formation inhibitory effect compared to the vehicle group [1]: 63%
- amount of MMP9 protein in the tumor (immunohistochemical staining) [2]: significantly reduced
- amount of MMP9 in tumor tissues (Western blot) [3]: reduced

Substance: SIIFRIFLHLQK-CYSSPWTKC-RRR (SIIFRIFLHLQKCYSSPWTKCRRR; disulfide 13-21) [OCP5-VGLL1S84-7C]
- cancer cell growth inhibitory effect [4]: significant cancer cell growth inhibitory effect
- tumor formation inhibitory effect compared to the vehicle group [1]: 45%
- migration of cancer cells (wound width, % Confluence) [5]: inhibited
- growth inhibitory efficacy compared to the control OCP5 [6]: confirmed
- growth inhibitory efficacy compared to the control OCP5 [7]: confirmed
- growth inhibitory efficacy compared to the control OCP5 [8]: confirmed
- growth inhibitory efficacy compared to the control OCP5 [9]: confirmed
- growth inhibitory efficacy compared to the control OCP5 [10]: confirmed
- growth inhibitory efficacy compared to the control OCP5 [11]: confirmed
- growth inhibitory efficacy compared to the control OCP5 [12]: confirmed
- amount of MMP9 protein in the tumor (immunohistochemical staining) [2]: significantly reduced
- growth inhibitory efficacy compared to the control OCP5 [13]: confirmed
- amount of MMP9 in tumor tissues (Western blot) [3]: reduced

Substance: SIIFRIFLHLQKRRR (OCP5)
- cell permeability (as concluded from the growth inhibition screening) ([4]; NUGC3, 10 μM screening): increased
- cancer cell growth inhibitory effect [4]: increased
- intracellular permeability (amount of FITC in the cells) [14]: significantly increased
- effect on tumor formation compared to the vehicle group [1]: did not affect the tumor formation

Substance: SIIFRIFRRRRR-PNQWRYSSPWTKPQP (SIIFRIFRRRRRPNQWRYSSPWTKPQP; OCP9-VGLL1S84-15) [OCP9-VGLLIS84-15]
- cancer cell growth inhibitory efficacy [4]: concentration-dependent
- cancer cell growth inhibitory efficacy [15]: concentration-dependent

Substance: SIIFRIFRRRRR-YSSPWTK (SIIFRIFRRRRRYSSPWTK; OCP9-VGLL1S84-7) [OCP9-VGLLIS84-7]
- cancer cell growth inhibitory efficacy [4]: concentration-dependent
- cancer cell growth inhibitory efficacy [15]: concentration-dependent

Substance: YGRKKRRQRRR-CYSSPWTKC (YGRKKRRQRRRCYSSPWTKC; disulfide 12-20) [SEQ ID NO: 6, TAT-cyclic anticancer peptide]
- cell growth inhibitory effect ([4]; NUGC3, 100 μM, 72 hours, compared with linear anticancer peptide (SEQ ID NO: 5)): significantly superior
- cell growth inhibitory effect [16]: significantly superior
